Like-named read-outs stand apart in the source and are kept apart here.
Legend:
[1] = system: MV4;11 cells; experiment: Cell viability assay (CellTiter-Glo) in MV4;11 cells, alone or with gilteritinib; assay type: cell-based; details: Homo sapiens, MV4-11, 72 h, MV4;11 cells, three days, CellTiter-Glo, read-out: MV4
[2] = system: MOLM-13 cells; experiment: Cell viability assay (CellTiter-Glo) in MOLM-13 cells, alone or with gilteritinib; assay type: cell-based; details: Homo sapiens, MOLM-13, 72 h, MOLM-13 cells, three days, CellTiter-Glo
[3] = compound alone (without gilteritinib), 11 IC50
[4] = with gilteritinib 10 nM, 11 IC50 gilteritinib
[5] = compound alone (without gilteritinib), read-out: MOLM-13 IC50
[6] = with gilteritinib 20 nM, read-out: MOLM-13 IC50 gilteritinib

Row | SMILES | IC50 [1, 3] [nM] | IC50 [1, 4] [nM] | IC50 [2, 5] [nM] | IC50 [2, 6] [nM]
1 | O=C1CCC(N2C(=O)c3ccc(NCCC4CC(C(=O)N5CCC(n6cc(-c7cnc8ccccc8n7)cn6)CC5)C4)cc3C2=O)C(=O)N1 (stereo not drawn) [GS-205, 2-(2,6-Dioxopiperidin-3-yl)-5-((2-(3-(4-(4-(quinoxalin-2-yl)-1H-pyrazol-1-yl)piperidine-1-carbonyl)cyclobutyl)ethyl)amino)isoindoline-1,3-dione] | 10 to 100 | < 10 | 10 to 100 | < 10
2 | O=C1CCC(N2C(=O)c3ccc(NCCC[C@H]4C[C@@H](n5cc(-c6cnc7ccc(C8CCOCC8)cc7n6)c(C(F)(F)F)n5)C4)cc3C2=O)C(=O)N1 (stereo partly drawn) [GS-210, 2-(2,6-Dioxopiperidin-3-yl)-5-((3-(cis-3-(4-(7-(tetrahydro-2H-pyran-4-yl)quinoxalin-2-yl)-3-(trifluoromethyl)-1H-pyrazol-1-yl)cyclobutyl)propyl)amino)isoindoline-1,3-dione] | < 10 | < 10 | < 10 | < 10
3 | O=C1CCC(N2C(=O)c3ccc(NCCCCC(=O)N4CCC(n5cc(-c6cnc7ccc(N8CCNCC8)cc7n6)c(C6CC6)n5)CC4)cc3C2=O)C(=O)N1 (stereo not drawn) [GS-211, 5-((5-(4-(3-Cyclopropyl-4-(7-(piperazin-1-yl)quinoxalin-2-yl)-1H-pyrazol-1-yl)piperidin-1-yl)-5-oxopentyl)amino)-2-(2,6-dioxopiperidin-3-yl)isoindoline-1,3-dione] | 10 to 100 | < 10 | 10 to 100 | < 10
4 | O=C1CCC(N2C(=O)c3ccc(NCCC[C@H]4C[C@H](n5cc(-c6cnc7ccc(C(F)(F)F)cc7n6)cn5)C4)cc3C2=O)C(=O)N1 (stereo partly drawn) [GS-212, 2-(2,6-Dioxopiperidin-3-yl)-5-((3-(trans-3-(4-(7-(trifluoromethyl)quinoxalin-2-yl)-1H-pyrazol-1-yl)cyclobutyl)propyl)amino)isoindoline-1,3-dione] | 10 to 100 | 10 to 100 | 10 to 100 | 10 to 100
5 | O=C1CCC(N2C(=O)c3ccc(NCCC[C@H]4C[C@@H](n5cc(-c6cnc7ccc(C8CCOCC8)cc7n6)c(C6CC6)n5)C4)cc3C2=O)C(=O)N1 (stereo partly drawn) [GS-213, 5-((3-(cis-3-(3-Cyclopropyl-4-(7-(tetrahydro-2H-pyran-4-yl)quinoxalin-2-yl)-1H-pyrazol-1-yl)cyclobutyl)propyl)amino)-2-(2,6-dioxopiperidin-3-yl)isoindoline-1,3-dione] | < 10 | < 10 | < 10 | < 10
6 | O=C1CCC(N2C(=O)c3ccc(NCCC[C@H]4C[C@H](n5cc(-c6cnc7ccc(N8CC9CCC(C8)N9)cc7n6)cn5)C4)cc3C2=O)C(=O)N1 (stereo partly drawn) [GS-215, 5-((3-(trans-3-(4-(7-(3,8-Diazabicyclo[3.2.1]octan-3-yl)quinoxalin-2-yl)-1H-pyrazol-1-yl)cyclobutyl)propyl)amino)-2-(2,6-dioxopiperidin-3-yl)isoindoline-1,3-dione] | 100 to 1000 | 10 to 100 | 100 to 1000 | < 10
7 | O=C1CCC(N2C(=O)c3ccc(NC[C@H]4C[C@H](n5cc(-c6cccc(N7CCOCC7)n6)cn5)C4)cc3C2=O)C(=O)N1 (stereo partly drawn) [GS-216, 2-(2,6-Dioxopiperidin-3-yl)-5-(((trans-3-(4-(6-morpholinopyridin-2-yl)-1H-pyrazol-1-yl)cyclobutyl)methyl)amino)isoindoline-1,3-dione] | 100 to 1000 | > 1000 | > 1000 | > 1000
8 | O=C1CCC(N2C(=O)c3ccc(NCCC[C@H]4C[C@H](n5cc(-c6cccc(N7CCOCC7)n6)cn5)C4)cc3C2=O)C(=O)N1 (stereo partly drawn) [GS-217, 2-(2,6-Dioxopiperidin-3-yl)-5-((3-(trans-3-(4-(6-morpholinopyridin-2-yl)-1H-pyrazol-1-yl)cyclobutyl)propyl)amino)isoindoline-1,3-dione] | 10 to 100 | < 10 | 100 to 1000 | < 10
9 | O=C1CCC(N2C(=O)c3ccc(NC[C@H]4C[C@H](n5cc(-c6cccc(NC7CCOCC7)n6)cn5)C4)cc3C2=O)C(=O)N1 (stereo partly drawn) [GS-218, 2-(2,6-Dioxopiperidin-3-yl)-5-(((trans-3-(4-(6-((tetrahydro-2H-pyran-4-yl)amino)pyridin-2-yl)-1H-pyrazol-1-yl)cyclobutyl)methyl)amino)isoindoline-1,3-dione] | 100 to 1000 | 10 to 100 | 100 to 1000 | 10 to 100

Second part, the molecule after the results:

Row | IC50 [1, 3] [nM] | IC50 [1, 4] [nM] | IC50 [2, 5] [nM] | IC50 [2, 6] [nM] | SMILES
10 | 10 to 100 | 10 to 100 | 100 to 1000 | < 10 | O=C1CCC(N2C(=O)c3ccc(NCCC[C@H]4C[C@H](n5cc(-c6cnc7ccc(OC8CCNCC8)cc7n6)cn5)C4)cc3C2=O)C(=O)N1 (stereo partly drawn) [GS-204, 2-(2,6-Dioxopiperidin-3-yl)-5-((3-(trans-3-(4-(7-(piperidin-4-yloxy)quinoxalin-2-yl)-1H-pyrazol-1-yl)cyclobutyl)propyl)amino)isoindoline-1,3-dione]
11 | 10 to 100 | 10 to 100 | 100 to 1000 | 10 to 100 | O=C1CCC(N2C(=O)c3ccc(NCCC[C@H]4C[C@H](n5cc(-c6cnc7ccc(Cl)cc7n6)cn5)C4)cc3C2=O)C(=O)N1 (stereo partly drawn) [GS-206, 5-((3-(trans-3-(4-(7-Chloroquinoxalin-2-yl)-1H-pyrazol-1-yl)cyclobutyl)propyl)amino)-2-(2,6-dioxopiperidin-3-yl)isoindoline-1,3-dione]
12 | 100 to 1000 | 10 to 100 | 100 to 1000 | < 10 | O=C1CCC(N2C(=O)c3ccc(NCCC[C@H]4C[C@@H](n5cc(-c6cnc7ccc(N8CCOCC8)cc7n6)cn5)C4)cc3C2=O)C(=O)N1 (stereo partly drawn) [GS-207, 2-(2,6-Dioxopiperidin-3-yl)-5-((3-(cis-3-(4-(7-morpholinoquinoxalin-2-yl)-1H-pyrazol-1-yl)cyclobutyl)propyl)amino)isoindoline-1,3-dione]
13 | 100 to 1000 | 10 to 100 | 100 to 1000 | 10 to 100 | O=C1CCC(N2C(=O)c3ccc(NCCC[C@H]4C[C@H](n5cc(-c6cnc7ccc(CN8CCOCC8)cc7n6)cn5)C4)cc3C2=O)C(=O)N1 (stereo partly drawn) [GS-208, 2-(2,6-Dioxopiperidin-3-yl)-5-((3-(trans-3-(4-(7-(morpholinomethyl)quinoxalin-2-yl)-1H-pyrazol-1-yl)cyclobutyl)propyl)amino)isoindoline-1,3-dione]
14 | 100 to 1000 | 10 to 100 | 100 to 1000 | 10 to 100 | O=C1CCC(N2C(=O)c3ccc(NCCC[C@H]4C[C@H](n5cc(-c6cnc7ccc(CN8CCNCC8)cc7n6)cn5)C4)cc3C2=O)C(=O)N1 (stereo partly drawn) [GS-209, 2-(2,6-Dioxopiperidin-3-yl)-5-((3-(trans-3-(4-(7-(piperazin-1-ylmethyl)quinoxalin-2-yl)-1H-pyrazol-1-yl)cyclobutyl)propyl)amino)isoindoline-1,3-dione]
15 | 100 to 1000 | 10 to 100 | > 1000 | 10 to 100 | O=C1CCC(N2C(=O)c3ccc(NCCC[C@H]4C[C@@H](n5cc(-c6cnc7ccc(NC8CCNCC8)cc7n6)cn5)C4)cc3C2=O)C(=O)N1 (stereo partly drawn) [GS-214, 2-(2,6-Dioxopiperidin-3-yl)-5-((3-(cis-3-(4-(7-(piperidin-4-ylamino)quinoxalin-2-yl)-1H-pyrazol-1-yl)cyclobutyl)propyl)amino)isoindoline-1,3-dione]

Reference: patent US20240050428A1 (Cullgen (Shanghai), Inc., priority 2020, published 2024)
